Results taken from ChEMBL document CHEMBL3397007, “Synthesis, biological activity and molecular modeling of new biphenylic carboxamides as potent and selective CB2 receptor ligands” (Eur J Med Chem, 2015).
Active and inactive are the calls of the source. The rule behind the calls is not given here.

Assays:
Cannabinoid receptor 2 [1] = molecular target: T1, Cannabinoid receptor 2 (Homo sapiens, UniProt P34972); assay: Displacement of [3H]CP55,940 from human recombinant CB2 receptor expressed in HEK293 cell membranes after 90 mins
T1 sequence (P34972 whole entry): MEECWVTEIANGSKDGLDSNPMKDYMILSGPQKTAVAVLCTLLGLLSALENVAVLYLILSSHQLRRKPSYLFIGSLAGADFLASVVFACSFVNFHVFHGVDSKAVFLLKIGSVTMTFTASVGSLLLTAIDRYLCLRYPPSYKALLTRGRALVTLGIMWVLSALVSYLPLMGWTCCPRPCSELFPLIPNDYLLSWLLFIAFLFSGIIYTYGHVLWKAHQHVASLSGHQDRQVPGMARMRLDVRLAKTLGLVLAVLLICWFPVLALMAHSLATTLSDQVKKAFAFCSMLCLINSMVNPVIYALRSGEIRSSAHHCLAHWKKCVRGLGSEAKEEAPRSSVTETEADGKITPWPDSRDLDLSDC

Cannabinoid receptor 1 = Cannabinoid receptor 1 (Homo sapiens, UniProt P21554); assay: Displacement of [3H]CP55,940 from human recombinant CB1 receptor expressed in HEK293 cell membranes after 90 mins
Cannabinoid receptor 1, sequence (P21554 whole entry): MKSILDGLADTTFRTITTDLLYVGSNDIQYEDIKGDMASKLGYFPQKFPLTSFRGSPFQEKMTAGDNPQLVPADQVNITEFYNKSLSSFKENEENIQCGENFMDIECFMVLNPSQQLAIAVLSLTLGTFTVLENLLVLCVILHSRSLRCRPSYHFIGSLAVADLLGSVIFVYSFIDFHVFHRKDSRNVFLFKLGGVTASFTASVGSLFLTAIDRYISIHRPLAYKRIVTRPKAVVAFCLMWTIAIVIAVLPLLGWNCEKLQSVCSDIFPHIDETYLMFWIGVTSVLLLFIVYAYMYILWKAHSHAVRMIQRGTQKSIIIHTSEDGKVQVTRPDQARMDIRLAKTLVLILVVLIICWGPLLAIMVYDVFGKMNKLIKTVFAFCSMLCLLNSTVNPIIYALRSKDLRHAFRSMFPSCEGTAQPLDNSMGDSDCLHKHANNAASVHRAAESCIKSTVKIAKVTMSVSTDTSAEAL

Cannabinoid receptor 2 [2] = molecular target: T1, Cannabinoid receptor 2; assay: Activity at human CB2 receptor expressed in CHO cell membranes by [35S]GTPgammaS binding assay; assay type: functional
HEK293 = assay: Selectivity index, ratio of Ki for human recombinant CB1 receptor expressed in HEK293 cell membranes to Ki for human recombinant CB2 receptor expressed in HEK293 cell membranes; assay type: cell-based
Cannabinoid receptor 2 [3] = molecular target: T1, Cannabinoid receptor 2; assay: Antagonist activity at human CB2 receptor expressed in CHO cell membranes assessed as inhibition of HU-210-induced [35S]GTPgammaS binding; assay type: functional
Cannabinoid receptor 2 [4] = molecular target: T1, Cannabinoid receptor 2; assay: Agonist activity at human CB2 receptor expressed in CHO cell membranes by [35S]GTPgammaS binding assay; assay type: functional
[5] = molecular target: Cannabinoid receptor 1 (Rattus norvegicus) (UniProt P20272); assay: Antagonist activity at CB1 receptor in rat cerebellar membranes assessed as inhibition of HU-210-induced [35S]GTPgammaS binding at 10 uM; assay type: functional, cell membranes; conditions: Cerebellum, Membrane
Cannabinoid receptor 1 (Rattus norvegicus), sequence (P20272 whole entry): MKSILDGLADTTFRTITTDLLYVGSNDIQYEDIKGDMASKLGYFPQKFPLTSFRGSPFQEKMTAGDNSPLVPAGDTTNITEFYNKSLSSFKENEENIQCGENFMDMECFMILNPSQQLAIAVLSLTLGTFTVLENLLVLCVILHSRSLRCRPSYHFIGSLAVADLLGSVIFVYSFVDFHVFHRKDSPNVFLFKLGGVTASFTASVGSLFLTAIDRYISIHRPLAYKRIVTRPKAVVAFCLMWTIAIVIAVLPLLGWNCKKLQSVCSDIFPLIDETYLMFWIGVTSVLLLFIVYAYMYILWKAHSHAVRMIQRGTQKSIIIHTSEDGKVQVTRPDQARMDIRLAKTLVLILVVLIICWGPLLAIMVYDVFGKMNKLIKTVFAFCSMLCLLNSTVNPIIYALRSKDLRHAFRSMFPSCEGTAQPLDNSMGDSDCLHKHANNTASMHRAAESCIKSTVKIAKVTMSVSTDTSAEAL

[6] = molecular target: Cannabinoid receptor 1 (Rattus norvegicus) (UniProt P20272); assay: Agonist activity at CB1 receptor in rat cerebellar membranes at < 10 uM by [35S]GTPgammaS binding assay; assay type: functional, cell membranes; conditions: Cerebellum, Membrane
Cannabinoid receptor 2 [7] = molecular target: T1, Cannabinoid receptor 2; assay: Neutral antagonist activity at human CB2 receptor expressed in CHO membranes assessed as inhibition of agonist HU-210-induced responses by [35S]GTPgammaS binding assay; assay type: functional, cell membranes
Cannabinoid receptor 2 [8] = molecular target: T1, Cannabinoid receptor 2; assay: Competitive antagonist activity at human CB2 receptor expressed in CHO membranes assessed as inhibition of HU-210-induced [35S]GTPgammaS binding by Schild-plot; assay type: functional, cell membranes; conditions: read-out: pA2 (converted)
Cannabinoid receptor 2 [9] = molecular target: T1, Cannabinoid receptor 2; assay: Neutral antagonist activity at human CB2 receptor expressed in CHO membranes assessed as inhibition of inverse agonist SR144528-induced responses by [35S]GTPgammaS binding assay; assay type: functional, cell membranes

Structure (SMILES)	Ki (Cannabinoid receptor 2 [1])	Ki (Cannabinoid receptor 1)	Ratio Ki (HEK293)	further results
CCCCc1cc(-c2ccc(OC)cc2)cc(C(=O)N[C@H]2CC[C@@H](C)CC2)c1OC	22 nM	1550 nM	70	Activity (Cannabinoid receptor 2 [2]): inactive; inhibition (Cannabinoid receptor 2 [3]): Active
COc1c(C)cc(-c2ccccc2)cc1C(=O)NC1CCCCCC1	100 nM	870 nM	8.7	–
COc1ccc(-c2cc(C)c(OC)c(C(=O)N[C@H]3CC[C@H](C)CC3)c2)cc1	> 10000 nM	> 10000 nM	–	–
CCCCc1cc(-c2ccc(OC)cc2)cc(C(=O)N[C@H]2CC[C@H](C)CC2)c1OC	143 nM	2290 nM	16	Activity (Cannabinoid receptor 2 [2]): inactive; inhibition (Cannabinoid receptor 2 [3]): Active
COc1c(C)cc(-c2ccc(F)cc2)cc1C(=O)NC1CCCCCC1	60 nM	160 nM	2.67	EC50 (Cannabinoid receptor 2 [4]): 398 nM; inhibition [5]: Active; Activity [6]: inactive
COc1ccc(-c2cc(C)c(OC)c(C(=O)N[C@H]3CC[C@@H](C)CC3)c2)cc1	> 10000 nM	> 10000 nM	–	–
CCCCc1cc(-c2ccc(OC)cc2)cc(C(=O)NC2CCCCCC2)c1OC	11.5 nM	1490 nM	130	Activity (Cannabinoid receptor 2 [2]): inactive; inhibition (Cannabinoid receptor 2 [7]): Dose-dependent effect; Kb (Cannabinoid receptor 2 [8]): 794 nM; inhibition (Cannabinoid receptor 2 [9]): Dose-dependent effect; inhibition (Cannabinoid receptor 2 [3]): Active
COc1ccc(-c2cc(C)c(OC)c(C(=O)NC3CCCCCC3)c2)cc1	> 10000 nM	> 10000 nM	–	–
COc1c(C)cc(-c2ccccc2)cc1C(=O)N[C@H]1CC[C@H](C)CC1	90 nM	1530 nM	17	–
COc1c(C)cc(-c2ccc(F)cc2)cc1C(=O)N[C@H]1CC[C@H](C)CC1	90 nM	620 nM	6.89	–
CCCC(C)(C)c1ccc2c(c1)OC(C)(C)[C@@H]1CC=C(C)C[C@@H]21	–	–	226	–
COc1c(C)cc(-c2ccc(F)cc2)cc1C(=O)N[C@H]1CC[C@@H](C)CC1	60 nM	180 nM	3	EC50 (Cannabinoid receptor 2 [4]): 398 nM; inhibition [5]: Active; Activity [6]: inactive
COc1c(C)cc(-c2ccccc2)cc1C(=O)N[C@H]1CC[C@@H](C)CC1	150 nM	1090 nM	7.27	–
